What all share (test): NCI anticancer screen, dose series, 48 h
In assay [1] the test system is HCT-15 colon.
For assay [2], the system named is SW-620 colon.
Assay [3] relates to OVCAR-3 ovarian.
For assay [4], the system named is SN12C renal.
Assay [5] concerns K-562 leukemia.
For assay [6], the system named is A498 renal.
Assay [7] relates to CAKI-1 renal.
Assay [8] relates to UACC-62 melanoma.
In assay [9] the test system is NCI-H522 lung.

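Assay format: 96-well plates, 48-hour exposure. GI50 = concentration required for 50% inhibition of growth. TGI is the concentration that stops growth completely.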

With `O=C1N[C@@H](O)[C@@H]2ON=C(c3ccccc3)[C@H]12`, the TGI in [1], in assay [2], in assay [3], in assay [4], in assay [5] and in assay [6] was greater than 100 µM throughout. In addition, the TGI in assay [7] and in [8] was greater than 100 µM in each case.

Regarding `CN1CCN(C)C1c1cccc(C2N(C)CCN2C)c1`, the TGI in assay [1], in assay [9], in [3], in assay [4], in assay [5] and in assay [6] was greater than 100 µM each time. The compound further returned a TGI in [8] greater than 100 µM.

Take `O=C1c2ccccc2-c2cccc3ccc(Cc4ccccc4)c1c23`: the TGI in assay [1], in [9], in assay [2], in [3], in assay [4] and in assay [5] was greater than 100 µM each time. The same compound came in with a TGI in assay [8] greater than 100 µM.

For `O=c1c2ccccc2c2c3c1cccc3c1cccc3c(=O)c4ccccc4c2c31`, the TGI in assay [1], in [9], in [2], in [3], in assay [4] and in assay [5] was greater than 100 µM each time. Moreover, the TGI in [6], in [7] and in assay [8] was greater than 100 µM throughout.

For `c1ccc2c(c1)N=C(c1cccc3ccccc13)CC(c1cccc3ccccc13)S2` (centres undefined), the TGI in assay [1] is 22.5 µM; in assay [9] it was 8.44 µM; in [2] it was 6.81 µM; in assay [3], 9.68 µM; in [4] it was 15.9 µM; in assay [5], 6.32 µM. The TGI stood at 20.8 µM in [6], 13.2 µM in [7] and 19.8 µM in [8].

As for `Cc1ccc2/c(=C/c3ccc(N(C)C)cc3)c3cc(-c4ccccc4)[n+](C)n3c2c1`, the GI50 in assay [1] was 0.824 µM; in assay [9] it was 0.0547 µM; in assay [2] it was 0.186 µM; in [3] it was 1.1 µM; in [5], less than 0.0255 µM; in [7], 1.57 µM. In addition, the GI50 in assay [8] was 0.0292 µM. The TGI in assay [1] was greater than 100 µM; in assay [9] it was greater than 100 µM; in [2], 1.51 µM; in assay [3], 47.5 µM; in assay [5], greater than 100 µM; in [7] it was 6.58 µM. The compound also returned a TGI in [8] of 0.252 µM.

In the case of `CC(=O)c1c(C)n([O-])c2cc(C)c(C)cc2[n+]1=O`, the TGI in assay [1], in [9], in assay [2], in assay [3], in [4] and in assay [5] was greater than 100 µM throughout. The TGI in assay [6], in assay [7] and in assay [8] was greater than 100 µM throughout.

On to `N#Cc1c(N)c(C(=O)O)nn(-c2cccc(C(F)(F)F)c2)c1=O`, for which the TGI in assay [1], in assay [9], in assay [2], in assay [3], in [4] and in assay [5] was greater than 100 µM each time. Moreover, the TGI in [6], in assay [7] and in assay [8] was greater than 100 µM throughout.

With `O=C(Nc1ccc(S(=O)(=O)N[C@@H](C(=O)O)c2ccccc2)cc1)c1ccc(F)cc1`, the TGI in assay [1], in assay [9], in assay [2], in [3], in [4] and in [5] was greater than 100 µM throughout. Also, the TGI in assay [6], in assay [7] and in assay [8] was greater than 100 µM throughout.

Regarding `COc1cc(/C=C\c2ccc(O)cc2)cc(OC)c1OC`, the TGI in assay [1] is greater than 100 µM; in assay [9], greater than 22.4 µM; in assay [2], greater than 100 µM; in [3] it was 6.24 µM; in assay [4], greater than 53.6 µM; in assay [5], greater than 100 µM. The TGI is greater than 100 µM in assay [6], greater than 100 µM in assay [7] and greater than 29.1 µM in assay [8].

In the case of `NC1=NC(=O)C(CC(=O)Nc2ccc([N+](=O)[O-])cc2[N+](=O)[O-])S1` (centres undefined), the TGI in [2], in assay [3], in assay [4] and in [8] was greater than 100 µM throughout.

For the compound `CC(=O)OCCOCBr`, the TGI in assay [1], in assay [9], in assay [2], in [3], in assay [4] and in [5] was greater than 100 µM in each case. In addition, the TGI in assay [6], in [7] and in [8] was greater than 100 µM throughout.

Turning to `CC1=Nc2c(ccc3c2C(=O)c2ccccc2C3=O)NC(c2ccncc2)C1` (centres undefined), the TGI in [1], in assay [9], in assay [2], in [3], in assay [4] and in [5] was greater than 100 µM each time. For the same compound, the TGI in assay [6], in assay [7] and in [8] was greater than 100 µM each time. The GI50 in assay [3] was greater than 100 µM; in assay [7], 3.77 µM.

For the compound `COc1ccc(C(=O)C(C(=O)CCC(=O)Nc2cccc(C(F)(F)F)c2)c2ccccc2)cc1` (centres undefined), the TGI in assay [1], in assay [9], in assay [2], in assay [3], in assay [4] and in assay [5] was greater than 100 µM each time. Moreover, the TGI in assay [6], in assay [7] and in assay [8] was greater than 100 µM each time.

In the case of `Cn1c(N)nc2c(nc(OCc3ccccc3)n2C2OC(CO)C(O)C2O)c1=O` (centres undefined), the TGI in [9], in assay [2], in [3], in assay [4], in assay [5] and in assay [6] was greater than 100 µM throughout. The TGI in [7] and in [8] was greater than 100 µM throughout.

As for `CC/C=C\C/C=C\C1CC(=O)NCCCNCCCCN1` (centres undefined), the TGI in assay [9], in [2], in assay [4] and in [7] was greater than 100 µM each time.

For the compound `c1cc[c]([Sn]([S]c2cccc3cccnc23)([c]2ccccc2)[c]2ccccc2)cc1`, the GI50 in [1] is 0.0196 µM; in assay [2] it was 0.0225 µM; in assay [3], 0.0158 µM; in [4], 0.0326 µM; in assay [6], 0.152 µM; in assay [7] it was 0.0114 µM. Besides, the GI50 in assay [8] was 0.0352 µM. Besides, the TGI stood at 0.0467 µM in assay [1]; 0.0918 µM in [2]; 0.0346 µM in [3]; 0.161 µM in assay [4]; 0.346 µM in assay [6]; 0.0421 µM in assay [7]. Further, the TGI in assay [8] worked out at 0.162 µM.

Turning to `COc1ccc(C2=NC(C)(C)CO2)cc1`, the TGI in [1], in assay [2], in assay [3], in assay [4], in [5] and in assay [6] was greater than 100 µM in each case. The TGI in assay [7] and in assay [8] was greater than 100 µM each time.

For `Clc1ccc(CNc2nc3ccccc3nc2-c2cccs2)c(Cl)c1`, the TGI in assay [1], in [2], in assay [3], in assay [4] and in [5] was greater than 100 µM each time.

In the case of `CCOc1cccc2nc3cccc(C(=O)NCCN(C)C)c3nc12`, the TGI in assay [1] is 7.47 µM; in assay [9] it was greater than 100 µM; in assay [3], 5.51 µM; in assay [4] it was 3.59 µM; in [5], 2.62 µM; in assay [6], 2.26 µM. In addition, the TGI in assay [8] stood at 3.38 µM.

With `Clc1cc(Cl)c2c(Cl)cc(Cl)c3c2c1N=S=N3`, the TGI in assay [1], in assay [9], in assay [2], in assay [3], in assay [5] and in assay [6] was greater than 100 µM in each case. For the same compound, the TGI in assay [7] and in [8] was greater than 100 µM throughout.

For the compound `CCOC(=O)Cc1nc(/C(C#N)=C/c2ccco2)[nH]c(=O)c1C#N`, the TGI in [1], in assay [9], in assay [2], in assay [3], in [4] and in assay [5] was greater than 100 µM in each case. Besides, the TGI in assay [7] and in assay [8] was greater than 100 µM each time.

Consider `COc1ccc(C2C(N)=NCC2c2ccccn2)cc1` (centres undefined), for which the TGI in assay [9], in assay [2], in assay [3], in assay [4], in [5] and in assay [6] was greater than 100 µM in each case. The TGI in [7] and in assay [8] was greater than 100 µM throughout.

Take `Oc1c2c(c(O)c3ccccc13)=N[C@@H](c1ccccc1)[C@H](c1ccccc1)N=2`: the TGI in [1], in [9], in assay [2], in assay [3], in [4] and in assay [5] was greater than 100 µM each time. For the same compound, the TGI in assay [6], in assay [7] and in [8] was greater than 100 µM in each case.

Consider `CC1(C)CCc2cc3c(cc2O1)OCCC3=O`, for which the TGI in assay [1], in assay [9], in assay [2], in assay [3], in assay [4] and in [5] was greater than 100 µM each time. Further, the TGI in [6], in assay [7] and in assay [8] was greater than 100 µM throughout.

With `CN(C)C(=S)/N=c1\ss/c(=N\S(=O)(=O)c2ccccc2)n1-c1ccccc1`, the TGI in assay [1], in assay [9], in [2], in assay [3], in assay [4] and in [5] was greater than 100 µM throughout. Also, the TGI in [6], in assay [7] and in assay [8] was greater than 100 µM each time.

Consider `C[C@H]1CCC/C=C/[C@@H]2C[C@H](N)C[C@H]2[C@H](O)/C=C/C(=O)O1`, for which the GI50 in [1], in assay [9], in [2], in assay [3], in assay [4] and in assay [5] was greater than 100 µM each time. The GI50 is 67.9 µM in assay [6], greater than 100 µM in [7] and greater than 100 µM in assay [8]. Further, the TGI in assay [1], in assay [9], in assay [2], in assay [3], in [4] and in [5] was greater than 100 µM in each case. In addition, the TGI in assay [6], in assay [7] and in assay [8] was greater than 100 µM throughout.

Regarding `CC(O)CN1C(=O)NC(Cc2ccccc2)C1=O` (centres undefined), the TGI in assay [9], in [2], in [4] and in assay [7] was greater than 100 µM each time.

`CCCS(=O)(=O)c1nc(NC2CC2)cc(-c2ccc3c(ccn3C3CC(C)(C)NC(C)(C)C3)c2)n1`: the GI50 in assay [1] was 1.57 µM; in assay [3], 1.84 µM; in [4], 1.88 µM; in assay [5], 0.777 µM; in [6], 1.81 µM; in [7], 1.56 µM. Besides, the TGI in assay [1] was determined as 3.12 µM; in assay [3], 3.42 µM; in [4], 3.8 µM; in [5] it was 2.48 µM; in assay [6], 3.37 µM; in assay [7], 3.05 µM.

Values taken from PubChem BioAssay (NCI).
